Results on two compounds are retold here after patent US20120184504A1, “"The Use of a PAR-1 Antagonist in Combination with a P2Y12 ADP Receptor Antagonist for Inhibition of Thrombosis"” (priority 2009, published 2012).

Assay [1] relates to platelet aggregation induced by ADP (10 μM). The experiment in a line: Ex vivo whole blood platelet aggregation induced by ADP. Type of assay: in vivo, cynomolgus monkeys. The protocol: (§1) Animals instrumented to produce CFRs were administered SCH 602539, cangrelor, or a combination of SCH 602539 and cangrelor. The dosing regimens of SCH 602539 were selected to provide a broad range of inhibition of platelet aggregation induced by 1 μM thrombin receptor agonist peptide (TRAP), whereas the doses of cangrelor were selected to achieve 50%-60% inhibition of platelet aggregation induced by 10 μM ADP (the degree of inhibition obtained with clopidogrel). Group 1 received drug vehicle only (20% hydroxypropyl betacyclodextran or saline, 2 mL i.v.). Group 2 received SCH 602539 dissolved in 20% hydroxypropyl betacyclodextran administered as sequential i.v. boluses of 0.1, 0.3, or 1 mg/kg, at 30-minute intervals. Group 3 received cangrelor dissolved in saline and administered as an intravenous infusion of 0.1, 0.2, or 0.3 μg/kg/min for 30 minutes each. Group 4 received a combination of SCH 602539 bolus plus cangrelor infusion (at respective doses of: 1) 0.05 mg/kg+0.05 μg/kg/min; 2) 0.1 mg/kg+0.1 μg/kg/min; and 3) 0.15 mg/kg+0.1 μg/kg/min. The three dose regimens within each group were administered sequentially over the consecutive 30-minute periods coinciding with the re-induction of endothelial injury. Study drug or vehicle was administered after stable CFRs were achieved, and upon the completion of a 30-minute baseline CFR collection period, drug(s) or vehicle were administered incrementally (every 30 minutes) either as a bolus (SCH 602539) or as an infusion (cangrelor), and their effects on CFRs were monitored in the next three 30-minute observation periods. Blood samples (3 mL) were collected from the femoral arterial catheter at the end of each 30-minute observation period for assessment of ex vivo platelet aggregation and coagulation parameters.
Platelet aggregation studies were performed ex viva on blood samples obtained from the monkeys subjected to the Folts model, using a ChronoLog whole blood aggregometer (Model 540VS, Havertown, Pa.). Briefly, 0.5 mL of blood was incubated with 0.5 mL of normal saline at 37° C. in a cuvette containing a stir bar for 2 minutes. Platelet agonists used in this study included TRAP (3 μM), ADP (10 μM), the thromboxane A2 mimetic U46619 (10 μM), and collagen (3 μg/mL). Platelet aggregation was monitored for 5 minutes following the addition of the agonist. The peak aggregation response was recorded in ohms. In addition, standard coagulation parameters, including prothrombin time (PT), activated partial thromboplastin time (APTT), and activated clotting time (ACT), were assessed.

Assay [2] deals with platelet-dependent thrombus formation (cyclic flow reductions). Nature of the assay: Folts model of thrombosis: cyclic flow reductions (CFRs) in the carotid artery. As to conditions: for EC50 (dose regimen needed for 50% reduction in CFRs): from dose-response curve, Inhibitory Effect Emax model. It counts as in vivo, cynomolgus monkeys.
Excerpt: The procedures used in this study are similar to the acute artery occlusion model developed by Folts and others. (Cook J J, Sitko G R, Bednar B, Condra C, Mellott M J, Feng D M, Nutt R F, Shafer J A, Gould R J, Connolly T M. An antibody against the exosite of the cloned thrombin receptor inhibits experimental arterial thrombosis in the African green monkey. Circulation. 1995; 91:2961-2971. Folts J. An in vivo model of experimental arterial stenosis, intimal damage, and periodic thrombosis. Circulation. 1991; 83(Suppl):IV3-IV14. Mousa S A, DeGrado W F, Mu D X, Kapil R P, Lucchesi B R, Reilly T M. Oral antiplatelet, antithrombotic efficacy of DMP 728, a novel platelet GPIIb/IIIa antagonist. Circulation. 1996; 93:537-543. Wu D, Vanhoorelbeke K, Cauwenberghs N, Meiring M, Depraetere H, Kotze H F, Deckmyn H. Inhibition of the von Willebrand (VWF)-collagen interaction by an antihuman VWF monoclonal antibody results in abolition of in vivo arterial platelet thrombus formation in baboons. Blood. 2002; 99:3623-3628).
Cynomolgus monkeys were sedated with ketamine HCl (10 mg/kg, IM) followed by anesthetization with sodium pentobarbital 20 mg/kg i.v. bolus and an infusion of 5 mg/kg/h i.v. for the duration of the experiment. Body temperature was maintained at 37°-39° C., and fluids infused were warmed to body temperature. The right carotid artery was exposed and dissected free of surrounding tissue, and a transonic flow probe of appropriate size was placed around the vessel. A Lexan constrictor (5 mm length) was placed onto the carotid artery. The constrictor was sized to abolish reactive hyperemia and to reduce mean carotid blood flow by no more than 50%-60%. Mechanical damage to the endothelium was induced in the constricted segment of the artery. Cyclic flow reductions due to platelet-dependent thrombus formation occurred shortly after placement of the constrictor over the region of endothelial damage. These gradual declines in carotid blood flow were occasionally interrupted spontaneously, but frequently required manual restoration by gently shaking the vessel. Flow reductions would typically return in 3-4 minutes. CFR frequency was calculated as the number of such cycles (CFRs) over a 30-minute period. On the basis of pilot studies, CFRs were evaluated in a maximum of four consecutive 30-minute collection periods, and mechanically mediated endothelial injury was performed at 30-minute intervals to ensure exposure of the thrombogenic endothelium.
as §1, with “Study drug or vehicle was administered after stable CFRs were achieved, and upon the completion of a 30-minute baseline CFR collection period, drug(s) or vehicle were administered incrementally (every 30 minutes) either as a bolus (SCH 602539) or as an infusion (cangrelor), and their effects on CFRs were monitored in the next three 30-minute observation periods. Blood samples (3 mL) were collected from the femoral arterial catheter at the end of each 30-minute observation period for assessment of ex vivo platelet aggregation and coagulation parameters.” left out

Where only a bound is given, the exact number is not on record here.

Regarding `CSCCNc1nc(SCCC(F)(F)F)nc2c1ncn2[C@@H]1O[C@H](COP(=O)(O)OP(=O)(O)C(Cl)(Cl)P(=O)(O)O)[C@@H](O)[C@H]1O` [Cangrelor], the “Aggregation, ADP” value in assay [1] (Cangrelor 0.1 μg/kg/min, baseline 14 ± 3) is 10 ± 2 ohms; in assay [1] (Cangrelor 0.2 μg/kg/min, baseline 14 ± 3), 7 ± 1 ohms; in assay [1] (Cangrelor 0.3 μg/kg/min, baseline 14 ± 3) it was 6 ± 1 ohms. Moreover, the CFRs in assay [2] (Cangrelor 0.1 μg/kg/min i.v. infusion 30 min, per 30-minute period, baseline 9.5 + 0.9) is recorded as 5.7 + 1.5; in assay [2] (Cangrelor 0.2 μg/kg/min i.v. infusion 30 min, baseline 9.5 + 0.9), 3.2 + 1.7; in assay [2] (Cangrelor 0.3 μg/kg/min i.v. infusion 30 min, baseline 9.5 + 0.9) it was 1.2 + 1.3. Also, the “CFR frequency reduced from baseline” value in assay [2] (cangrelor 0.1 μg/kg/min 30-minute infusion) is “approximately 40%”; in assay [2] (cangrelor 0.2 μg/kg/min 30-minute infusion, significant versus vehicle), roughly 70%; in assay [2] (cangrelor 0.3 μg/kg/min 30-minute infusion, significant versus vehicle), roughly 90%. The “animals in which CFRs were completely prevented” value is given as 5/6 in assay [2] (cangrelor highest dose (0.3 μg/kg/min)) and 3/6 in assay [2] (cangrelor intermediate dose (0.2 μg/kg/min)). In assay [2] (cangrelor lowest dose (0.1 μg/kg/min)), the “complete suppression of CFRs” value is listed as “No complete suppression”. Further, in assay [2] (i.v. infusion), the “EC50 (dose regimen needed for 50% reduction in CFRs)” value worked out at 0.099 ± 0.039 µg/kg/min.

As to `CCOC(=O)N[C@@H]1CC[C@@H]2[C@@H](C1)C[C@H]1C(=O)O[C@H](C)[C@H]1[C@H]2/C=C/c1ccc(-c2ccccn2)cn1` [SCH 602539], the “Aggregation, ADP” value in assay [1] (SCH 602539 0.1 mg/kg, baseline 15 ± 3) is 14 ± 2 ohms; in assay [1] (SCH 602539 0.3 mg/kg, baseline 15 ± 3), 16 ± 3 ohms; in assay [1] (SCH 602539 1.0 mg/kg, baseline 15 ± 3), 13 ± 4 ohms. In addition, the “effect on aggregation induced by 10 μM ADP” value in assay [1] (SCH 602539 0.3 mg/kg and 1 mg/kg) is recorded as “did not affect”. The “CFR frequency reduced from baseline” value was “approximately 50%” in assay [2] (SCH 602539 0.1 mg/kg i.v. bolus); greater than 80% in assay [2] (SCH 602539 0.3 mg/kg i.v. bolus, P<0.05 versus vehicle); greater than 80% in assay [2] (SCH 602539 1.0 mg/kg i.v. bolus, P<0.05 versus vehicle). In addition, the CFRs in assay [2] (SCH 602539 0.1 mg/kg i.v. bolus, CFRs per 30-minute period, baseline 8.7 + 0.6) is on record as 4.3 + 1.3; in assay [2] (SCH 602539 0.3 mg/kg i.v. bolus, per 30-minute period, baseline 8.7 + 0.6), 1.7 + 1.2; in assay [2] (SCH 602539 1.0 mg/kg i.v. bolus, per 30-minute period, baseline 8.7 + 0.6), 1.8 + 1.3. Further, the “animals in which CFRs were completely abolished” value in assay [2] (SCH 602539 0.3 mg/kg) and in assay [2] (SCH 602539 1.0 mg/kg) was 4 of 6 in each case. Also, the “EC50 (dose regimen needed for 50% reduction in CFRs)” value in assay [2] (i.v. bolus) is 0.10 ± 0.042 mg/kg.
